Values joined by “and” are separate entries in the source; they are usually repeats but may differ in a detail not shown here. Identical values can stand only once. “Also recorded” adds a separate entry of the source. Like-named read-outs stand apart in the source and are kept apart here. Where a SMILES comes first, the peptide text is derived from it. [ ]: non-standard residue; d: D form. dNle = CCCC[C@@H](N)C(=O)O; Ahx = NCCCCCC(=O)O
Tests used:
Microsomal metabolism = type: in vitro ADME, rat; conditions: over 90 min; data not shown
human HGF [1] = molecular target: T1, human HGF (Homo sapiens, UniProt P14210); assay: HGF binding, competition with 3H-Hinge; conditions: 1.25 ng HGF, 40 min at 37° C.; N=9
T1 construct: purchased R&D Systems (Minneapolis, Minn.)
T1 sequence (P14210 32-728): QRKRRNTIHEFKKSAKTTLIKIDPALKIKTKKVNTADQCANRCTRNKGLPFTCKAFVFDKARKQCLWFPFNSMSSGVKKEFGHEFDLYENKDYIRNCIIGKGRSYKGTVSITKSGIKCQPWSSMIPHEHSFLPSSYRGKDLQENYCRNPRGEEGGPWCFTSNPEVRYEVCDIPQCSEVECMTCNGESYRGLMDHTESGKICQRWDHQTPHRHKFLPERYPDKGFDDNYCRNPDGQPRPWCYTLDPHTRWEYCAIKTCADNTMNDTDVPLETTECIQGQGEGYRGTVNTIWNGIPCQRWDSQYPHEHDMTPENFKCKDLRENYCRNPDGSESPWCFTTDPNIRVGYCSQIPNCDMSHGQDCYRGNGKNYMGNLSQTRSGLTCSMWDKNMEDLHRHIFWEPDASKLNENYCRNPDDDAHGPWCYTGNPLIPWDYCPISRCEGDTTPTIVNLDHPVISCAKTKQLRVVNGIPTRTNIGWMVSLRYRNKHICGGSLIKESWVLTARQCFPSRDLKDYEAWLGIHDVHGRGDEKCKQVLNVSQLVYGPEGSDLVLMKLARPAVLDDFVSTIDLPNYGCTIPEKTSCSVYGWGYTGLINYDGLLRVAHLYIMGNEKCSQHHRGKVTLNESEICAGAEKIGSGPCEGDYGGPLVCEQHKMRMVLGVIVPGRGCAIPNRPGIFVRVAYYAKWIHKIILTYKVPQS
Description: The binding of 6-AH analogs to HGF was assessed by competition using a soluble binding assay. 250 μl of PBS containing human HGF (1.25 ng) were incubated with ^3H-Hinge, the central dimerization domain of HGF, in the presence of varying concentrations of 6-AH analogs between 10^−13 M to 10^−7M (half-log dilutions) for 40 min at 37° C. The incubates were then spun through Bio-Gel P6 spin columns (400 μl packed volume) for 1 min to separate free and bound ^3H-Hinge and the eluent was collected. Five milliliters of scintillation fluid was added to the eluent, which contained the HGF bound ^3H-Hinge, and was then counted using scintillation counter. Total disintegrations per minute of bound ^3H-Hinge were calculated based on machine counting efficiency. The Ki values for the binding of the peptides were determined using the Prism 5. Competition binding curves were performed in triplicate.

human HGF [2] = molecular target: T1, human HGF; assay: HGF dimerization; type: biochemical; conditions: analogs at 10^−10 M, heparin, 30 minute incubation
Description: HGF dimerization was assessed using PAGE followed by silver staining (Kawas et al., 2011). Human HGF at a concentration of 0.08 ng/μl with or without 6-AH analogs was incubated with heparin at a final concentration of 5 μg/ml. Loading buffer was then added to each sample and the mixture separated by native PAGE using gradient Criterion XT precast gels (4-12% Bis-Tris; Biorad Laboratories, Hercules, Calif.). Next the gel was silver stained for the detection of the HGF monomers and dimers. Bands were quantitated from digital images using a UVP phosphoimager (Upland, Calif.).

MDCK cells [3] = assay: Inhibition of HGF-dependent scattering in MDCK cells; type: cell-based, canine; conditions: HGF 20 ng/ml, 48 h
Description: MDCK cells were grown to 100% confluency on the coverslips in six-well plates and washed twice with PBS. The confluent coverslips were then aseptically transferred to new six well plates containing 900 μl serum free DMEM. Norleual, Hinge peptide, and/or HGF (20 ng/ml) were added to appropriate wells. Control wells received PBS vehicle. Plates were incubated at 37° C. with 5% CO2 for 48 h. Media was removed and cells were fixed with methanol. Cells were stained with Diff-Quik Wright-Giemsa (Dade-Behring, Newark, Del.) and digital images were taken. Coverslips were removed with forceps and more digital images were captured. Pixel quantification of images was achieved using Image J and statistics were performed using Prism 5 and InStat v.3.05 (GraphPad; San Diego, Calif.).

Blood stability studies = conditions: heparinized rat blood, 37° C.; single phase exponential decay
Description: (§1) At the end of each incubation, 20 μL of Nle^1-AngIV (100 μg/mL) was added to each sample as an internal standard. […] All samples were centrifuged at 4° C., 2300×g for 5 min and the supernatants were transferred to clean tubes.
(§2) Samples were then separated by HPLC on an Econosphere C18 (100 mm×2.1 mm) from Grace Davison Discovery Science (Deerfield, Ill.). […] The mobile phase consisted of HPLC water (Sigma St. Louis, Mo.) with 0.1% trifluoroacetic or 0.1% heptafluorobutyric acid (Sigma St. Louis, Mo.) and varying concentrations of ACN or methanol. Separation was carried out using a gradient method, at ambient temperature and a flow rate of 0.3 mL/min (see below for more information). Stability half-lives were determined assuming a normal single phase exponential decay using Prism 5 graphical/statistical program (GraphPad, San Diego, Calif.).

[4] = rat
Description: Male Sprague-Dawley rats (250+ g) were allowed food (Harlan Teklad rodent diet) and water ad libitum in our AAALAC certified animal facility. Rats were housed in temperature-controlled rooms with a 12 h light/dark cycle. The right jugular veins of the rats were catheterized with sterile polyurethane Hydrocoat™ catheters (Access Technologies, Skokie, Ill., USA) under ketamine (Fort Dodge Animal Health, Fort Dodge, Iowa, USA) and isoflurane (Vet One™, MWI, Meridian, Id., USA) anesthesia. The catheters were exteriorized through the dorsal skin. The catheters were flushed with heparinized saline before and after blood sample collection and filled with heparin-glycerol locking solution (6 mL glycerol, 3 mL saline, 0.5 mL gentamycin (100 mg/mL), 0.5 mL heparin (10,000 u/mL)) when not used for more than 8 h. The animals were allowed to recover from surgery for several days before use in any experiment, and were fasted overnight prior to the pharmacokinetic experiment.
Catheterized rats were placed in metabolic cages prior to the start of the study and time zero blood samples were collected. […] After dosing, blood samples were collected as follows (times and blood volumes collected are listed in chronological order):
After each blood sample was taken, the catheter was flushed with saline solution and a volume of saline equal to the volume of blood taken was injected (to maintain total blood volume).
Upon collection into polypropylene microfuge tubes without heparin, blood samples were immediately centrifuged at 4° C., 2300×g for 5 min to remove any cells and clots and the serum transferred into clean microcentrifuge tubes. A volume of internal standard (Nle^1-AngIV, 100 μg/mL) equal to 0.1 times the sample serum volume was added. A volume of ice-cold acetonitrile equal to four times the sample serum volume was then added and the sample vortexed vigorously for 30 s. The supernatants were transferred to clean tubes, then held on ice until the end of the experiment, and stored at 4° C. afterward until further processing.
All samples were evaporated to dryness in a Savant SpeedVac® concentrator. […] The samples were then transferred to HPLC autosampler vials and 100 μl was injected into the HPLC system a total of 2 times (2 HPLC/MS analyses) for each sample.
Data collection and integration were achieved using Shimadzu LCMS solution software. The analytical column used was an Econosphere C18 (100 mm×2.1 mm) from Grace Davison Discovery Science (Deerfield, Ill., USA). The mobile phase consisted of HPLC grade methanol and water with 0.1% trifluoroacetic acid. Separation was carried out using a non-isocratic method (40%-50% methanol over 10 min) at ambient temperature and a flow rate of 0.3 mL/min. […] Data were normalized based on the recovery of the internal standard.
Pharmacokinetic analysis was performed using data from individual rats. The mean and standard deviation (SD) were calculated for the group.

Met = assay: Inhibition of HGF-dependent Met phosphorylation in HEK293 cells; type: cell-based, human; conditions: 10 min with HGF+/− analog
Description: HEK293 cells were seeded in 6 well tissue culture plates and grown to 95% confluency in DMEM containing 10% FBS. The cells were serum deprived for 24 h prior to the treatment to reduce the basal levels of phospho-Met. Following serum starvation, cocktails comprised of vehicle and HGF with/without 6-AH analogs were prepared and pre-incubated for 30 min at room temperature. The cocktail was then added to the cells for 10 min to stimulate the Met receptor and downstream proteins. Cells were harvested using RIPA lysis buffer (Millipore; Billerica, Mass.) fortified with phosphatase inhibitor cocktails 1 and 2 (Sigma-Aldrich; St. Louis, Mo.). The lysate was clarified by centrifugation at 15,000 nx g for 15 min, protein concentrations were determined using the BCA total protein assay (Pierce), and then appropriate volumes of the lysates were diluted with 2× reducing Laemmli buffer and heated for ten min at 95° C. Samples containing identical amounts of protein were resolved using SDS-PAGE (Criterion, BioRad Laboratories), transferred to nitrocellulose, and blocked in Tris-buffered saline (TBS) containing 5% milk for 1 h at room temperature. The phospho-Met antibody were added to the blocking buffer at a final concentration of 1:1000 and incubated at 4° C. overnight with gentle agitation. The membranes were then washed several times with water and TBS ([…], 0.05% Tween-20), a 1:5000 dilution of horseradish-peroxidase conjugated goat anti-rabbit antiserum was added, and the membranes further incubated for 1 h at room temperature. Proteins were visualized using the Supersignal West Pico Chemiluminescent Substrate system (Pierce, Fenton, Mo.) and molecular weights determined by comparison to protein ladders (BenchMark, Invitrogen, and Kaleidoscope, BioRad). Film images were digitized and analyzed using a UVP phosphoimager.

MDCK cells [5] = assay: HGF-dependent MDCK cell proliferation (MTT); type: cell-based, canine; conditions: analogs at 10^−10M, HGF 10 ng/ml, 4 days
Description: 5000 MDCK cells were seeded into the wells of a 96 well plates in 10% FBS DMEM. To induce cellular quiescence, the cells were serum deprived for 24 h prior to initiating the treatments. Following serum starvation, 10 ng/ml HGF alone and with various concentrations of 6-AH analogs or PBS vehicle were added to the media. The cells were allowed to grow under these conditions for 4 days with a daily addition of 6-AH analogs. On the fourth day, 1 mg/ml of […] (MTT, Sigma-Aldrich) prepared in PBS was added to the cells and incubated for 4 h. Dimethyl sulfoxide diluted in a 0.01M glycine buffer was added to solubilize the cell membranes and the absorbance of reduced MTT in the buffer was quantitated at 590 nm using a plate reader (Biotek Synergy 2, Winooski, Vt.). HGF-dependent proliferation was determined by subtracting the basal proliferation (in the absence of HGF) from total proliferation rates in groups containing HGF.

[6] = system: B16-F10 murine melanoma cells; assay: B16-F10 melanoma lung colony formation; type: in vivo, mouse; conditions: C57BL/6 mice, daily IP 10 μg/kg/day or 100 μg/kg/day, 14 days
Description: Six to eight month old C57BL/6 mice were injected with 400,000 B16-F10 cells in 200 μl PBS by tail vein injection and subsequently received daily intraperitoneal injections of either D-Nle-X-Cys-NH—(CH2)5—CONH2 ([…]) or a PBS vehicle control. Two weeks later, mice were anesthetized and lungs were perfused with PBS and removed. Photos were taken and lungs were solubilized in 1% Triton x-100, 20 mM Tris, 0.15 M NaCl, 2 mM EDTA, and 0.02% sodium azide. Samples were disrupted by sonication (Mixonix, Farmingdale, N.Y.) and spun. The supernatant was transferred to a 96 well plate and melanin absorbance at 410 nm was measured using a plate reader.

[7] = rat; remark: listed apart in the source
Description: as §1, §2

| Compound | Phase I metabolism in rat liver microsomes (Microsomal metabolism) | Ki (human HGF [1]) | Inhibition of HGF dimerization (human HGF [2]) | Inhibition of HGF dimerization (human HGF [2]; listed as Tyr) | Inhibition of HGF-dependent MDCK cell scattering (MDCK cells [3]) | Stability t1/2 in blood (Blood stability studies) | Total recovery from serum ([4]; in vivo) | AUC(0-inf) ([4]; in vivo, iv, 24 mg/kg) | C0 ([4]; in vivo, iv, 24 mg/kg) | KE (rate of elimination) ([4]; in vivo, iv, 24 mg/kg) | Vd ([4]; in vivo, iv, 24 mg/kg) | clearance ([4]; in vivo, iv, 24 mg/kg) | t1/2 (in vivo elimination half-life) ([4]; iv, 24 mg/kg) | Inhibition of HGF-dependent Met phosphorylation (Met) | Inhibition of HGF-dependent MDCK cell proliferation (MDCK cells [5]) | Inhibition of B16-F10 melanoma lung colonization [6] | Inhibition of B16-F10 melanoma lung colonization ([6]; listed as D-Nle-Cys-Ile-(6)-amino-hexanoic amide) | Inhibition of HGF dimerization (human HGF [2]; listed as Cys) | Stability t1/2 in blood [7] |
| --- | --- | --- | --- | --- | --- | --- | --- | --- | --- | --- | --- | --- | --- | --- | --- | --- | --- | --- | --- |
| CCCC[C@@H](N)C(=O)N[C@@H](Cc1ccc(O)cc1)C(=O)N[C@H](C(=O)NCCCCCC(N)=O)[C@@H](C)CC (H-[dNle]YI[Ahx]-NH2) | no detectable metabolism | 0.243 nM | completely block HGF dimer formation | statistically different than the HGF treated group | different from the HGF alone group but not different from the control group | 1.33 h and 1.333 h | greater than 35% | 11500 ng·h/mL | 68.2 ± 32.2 µg/mL | 0.001 ± 0.0002 min − 1 | 104 ± 65 L/kg | 58.3 ± 15.6 mL/min/kg | 16.87 h | able to block Met auto-phosphorylation | marked inhibitory activity |  |  |  |  |
| CCCC[C@@H](N)C(=O)N[C@@H](CS)C(=O)N[C@H](C(=O)NCCCCCC(N)=O)[C@@H](C)CC [D-Nle-Cys-Ile-NH—(CH2)5—CONH2] (H-[dNle]CI[Ahx]-NH2) |  | 0.133 nM | completely block HGF dimer formation |  | different from the HGF alone group but not different from the control group |  |  |  |  |  |  |  |  | able to block Met auto-phosphorylation | marked inhibitory activity | suppressed pulmonary colonization; also recorded: radically prevented lung colonization | obvious reduction in melanoma colonies | statistically different than the HGF treated group |  |
| CCCC[C@H](N)C(=O)N[C@@H](Cc1ccc(O)cc1)C(=O)N[C@H](CN[C@@H](Cc1c[nH]cn1)C(=O)N1CCC[C@H]1C(=O)N[C@@H](Cc1ccccc1)C(=O)O)CC(C)C [Norleual, Nle-Tyr-Leu-Ψ-(CH2—NH2)^3-4-His-Pro-Phe] |  |  |  |  |  |  |  |  |  |  |  |  |  |  |  |  |  |  | 4.6 min |
